Data taken from patent publication US11339157B1, “4H-pyrrolo[3,2-c]pyridin-4-one derivatives” (Bayer Aktiengesellschaft, priority 2017, dated 2022).
Values joined by “and” are separate entries in the source; they are usually repeats but may differ in a detail not shown here. Equal entries are not always repeated. Structures can show the parent of a compound that is named as a salt.

Assays:
[1] = target: EGFR ins SVD (insertion of SVD between D770 and N771) (Homo sapiens, UniProt P00533, INS767SVD); assay: Exon 20-Mutant-EGFR(D770_N771insSVD) kinase assay (TR-FRET); format: biochemical; settings: Table 9; read-out: mutEGFR (D770_N771insSVD) kinase assay IC50
Ba/F3-EGFR-insSVD cells = assay: Proliferation assay in BA/F3 (ins SVD) cells (Cell Titer-Glo); format: cell-based
Method: (§1) Cellular Data Description (WT, insSVD, Ins ASV)
(§2) Plates were incubated at 37° C. for 48 h. Retrovirus was harvested by filtering the media supernatant through a 0.45 μm filter.
(§3) Ba/F3 cells purchased from DSMZ were grown in RPMI+10% FBS+10 ng/mL IL-3 and infected with filtered retroviral supernatant at a 1:2 dilution. Polybrene was added to a concentration of 8 μg/mL, plates were spun for 90 min, and incubated overnight at 37° C. 2 μg/mL puromycin was added to the infected cells 24 h after infection and cells were continually grown in the presence of puromycin and 10 ng/mL IL-3. Following stably expressing Ba/F3 cell lines were generated: Ba/F3-EGFR-WT, Ba/F3-EGFR-insSVD.
(§4) The cells ectopically expressing WT EGFR were plated with 10 ng/mL Millipore Culture grade EGF. The cells ectopically expressing EGFR-insSVD were plated without EGF.
(§5) 100 nL of compound was added to each well using a 100 nL pin head, and plates were incubated at 37° C. for 48 h.
(§6) Cell viability was measured by adding 30 μL of Cell Titer-Glo Luminescent Cell Viability Reagent. Plates were sealed with Perkin Elmer Top-Seal, inverted several times to mix, and immediately centrifuged at 1000 rpm for 2 min. Plates were incubated in low light conditions for 8-10 min and luminescence was measured.

Ba/F3-EGFR-WT cells = assay: Proliferation assay in BA/F3 (wild type) cells (Cell Titer-Glo); format: cell-based
Method: as §1, §2, §3, §4, §5, §6

[2] = Mus musculus, BaF3, 48 h, Table 10, plated without EGF
[3] = Mus musculus, BaF3, 48 h, Table 10, plated with 10 ng/mL EGF
[4] = Table 10, plated without EGF, 48 h
[5] = Mus musculus, BaF3, Table 10, plated without EGF, 48 h
[6] = Mus musculus, BaF3, Table 10, plated with 10 ng/mL EGF, 48 h

Sequence of EGFR ins SVD (insertion of SVD between D770 and N771) (P00533 with tags, fused parts or gaps INS767SVD limits assumed): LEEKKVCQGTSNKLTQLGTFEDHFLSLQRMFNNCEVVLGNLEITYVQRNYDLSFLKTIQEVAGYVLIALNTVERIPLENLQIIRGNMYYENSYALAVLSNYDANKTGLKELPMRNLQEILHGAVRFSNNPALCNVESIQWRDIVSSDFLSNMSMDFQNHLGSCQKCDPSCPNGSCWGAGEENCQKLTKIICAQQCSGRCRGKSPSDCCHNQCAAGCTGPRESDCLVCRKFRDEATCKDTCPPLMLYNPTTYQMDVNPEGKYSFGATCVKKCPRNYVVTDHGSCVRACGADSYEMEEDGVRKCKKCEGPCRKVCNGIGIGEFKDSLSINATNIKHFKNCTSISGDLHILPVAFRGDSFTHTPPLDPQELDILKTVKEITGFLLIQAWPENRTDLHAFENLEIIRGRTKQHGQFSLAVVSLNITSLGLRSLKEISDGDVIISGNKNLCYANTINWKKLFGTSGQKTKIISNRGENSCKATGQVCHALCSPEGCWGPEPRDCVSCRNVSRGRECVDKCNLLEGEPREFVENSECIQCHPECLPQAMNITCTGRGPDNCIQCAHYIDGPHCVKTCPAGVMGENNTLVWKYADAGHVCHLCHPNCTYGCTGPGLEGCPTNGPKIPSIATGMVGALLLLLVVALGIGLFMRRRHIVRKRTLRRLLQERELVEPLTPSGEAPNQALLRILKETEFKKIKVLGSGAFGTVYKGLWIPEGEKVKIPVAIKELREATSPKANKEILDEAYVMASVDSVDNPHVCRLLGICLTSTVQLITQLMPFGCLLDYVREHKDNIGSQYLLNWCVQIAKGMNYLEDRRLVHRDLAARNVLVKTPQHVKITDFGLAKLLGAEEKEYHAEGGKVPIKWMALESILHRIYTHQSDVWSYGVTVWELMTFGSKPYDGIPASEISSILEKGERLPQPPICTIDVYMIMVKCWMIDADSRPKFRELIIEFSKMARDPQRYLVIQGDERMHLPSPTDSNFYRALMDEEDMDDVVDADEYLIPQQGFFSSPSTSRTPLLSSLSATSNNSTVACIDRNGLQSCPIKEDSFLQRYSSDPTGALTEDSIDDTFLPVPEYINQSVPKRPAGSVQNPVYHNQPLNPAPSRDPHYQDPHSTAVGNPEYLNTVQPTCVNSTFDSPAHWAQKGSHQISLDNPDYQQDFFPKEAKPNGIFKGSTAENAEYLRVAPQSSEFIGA

For `COc1c(F)cccc1Nc1c(-c2ccncc2OCCOC(C)(C)C)[nH]c2c1C(=O)NCC2` [Example 91, 2-[3-(2-tert-butoxyethoxy)pyridin-4-yl]-3-(3-fluoro-2-methoxyanilino)-1,5,6,7-tetrahydro-4H-pyrrolo[3,2-c]pyridin-4-one], the IC50 [1] was 0.135 nM, the IC50 (Ba/F3-EGFR-insSVD cells; [2]) was 35.7 nM and the IC50 (Ba/F3-EGFR-WT cells; [3]) was 1100 nM.

Molecule `CC(C)(O)COc1cnccc1-c1[nH]c2c(c1Nc1cccc(F)c1OC(F)F)C(=O)NCC2` [Example 73, 3-[2-(difluoromethoxy)-3-fluoroanilino]-2-[3-(2-hydroxy-2-methylpropoxy)pyridin-4-yl]-1,5,6,7-tetrahydro-4H-pyrrolo[3,2-c]pyridin-4-one] has an IC50 [1] of 0.167 nM, an IC50 (Ba/F3-EGFR-insSVD cells; [2]) of 416 nM and an IC50 (Ba/F3-EGFR-WT cells; [3]) of 2520 nM.

Molecule `COC(C)(C)COc1cnccc1-c1[nH]c2c(c1Nc1cccc(F)c1OC(F)F)C(=O)NCC2` [Example 83, 3-[2-(difluoromethoxy)-3-fluoroanilino]-2-[3-(2-methoxy-2-methylpropoxy)pyridin-4-yl]-1,5,6,7-tetrahydro-4H-pyrrolo[3,2-c]pyridin-4-one-hydrogen chloride (1/1) Salt] has an IC50 [1] of 0.167 nM, an IC50 (Ba/F3-EGFR-insSVD cells; [4]) of 100 nM and an IC50 (Ba/F3-EGFR-WT cells; Table 10, plated with 10 ng/mL EGF, 48 h) of 2290 nM.

With `CCOC(C)(C)COc1cnccc1-c1[nH]c2c(c1Nc1cccc(F)c1OC)C(=O)NCC2` [Example 58, 2-[3-(2-ethoxy-2-methylpropoxy)pyridin-4-yl]-3-(3-fluoro-2-methoxyanilino)-1,5,6,7-tetrahydro-4H-pyrrolo[3,2-c]pyridin-4-one] the IC50 [1] was 0.113 nM, the IC50 (Ba/F3-EGFR-insSVD cells; [2]) was 18.6 nM and the IC50 (Ba/F3-EGFR-WT cells; [3]) was 561 nM.

With `COc1c(F)cccc1Nc1c(-c2ccncc2OCCC(C)(C)OC)[nH]c2c1C(=O)NCC2` [Example 57, 3-(3-fluoro-2-methoxyanilino)-2-[3-(3-methoxy-3-methylbutoxy)pyridin-4-yl]1,5,6,7-tetrahydro-4H-pyrrolo[3,2-c]pyridin-4-one] the IC50 [1] was 0.228 nM, the IC50 (Ba/F3-EGFR-insSVD cells; [2]) was 14.7 nM and the IC50 (Ba/F3-EGFR-WT cells; [3]) was 535 nM.

`Cc1c(F)cc(F)cc1Nc1c(-c2ccncc2OC[C@@H]2CCCN2C)[nH]c2c1C(=O)NCC2` [Example 51, 3-(3,5-difluoro-2-methylanilino)-2-(3-{[(2S)-1-methylpyrrolidin-2-yl]methoxy}pyridin-4-yl)-1,5,6,7-tetrahydro-4H-pyrrolo[3,2-c]pyridin-4-one] gave an IC50 [1] of 0.732 nM, an IC50 (Ba/F3-EGFR-insSVD cells; [5]) of 107 nM and an IC50 (Ba/F3-EGFR-WT cells; [6]) of 3290 nM.

With `COC(C)(C)COc1cnccc1-c1[nH]c2c(c1Nc1cc(F)cc(F)c1OC(F)F)C(=O)NCC2` [Example 43, 3-[2-(difluoromethoxy)-3,5-difluoroanilino]-2-[3-(2-methoxy-2-methylpropoxy)pyridin-4-yl]-1,5,6,7-tetrahydro-4H-pyrrolo[3,2-c]pyridin-4-one] the IC50 [1] was 0.1 nM, the IC50 (Ba/F3-EGFR-insSVD cells; [2]) was 117 nM and the IC50 (Ba/F3-EGFR-WT cells; [3]) was 1880 nM.

`CN(C)CCOc1cnccc1-c1[nH]c2c(c1Nc1cccc(F)c1OC(F)F)C(=O)NCC2` [Example 64, 3-[2-(difluoromethoxy)-3-fluoroanilino]-2-{3-[2-(dimethylamino)ethoxy]pyridin-4-yl}-1,5,6,7-tetrahydro-4H-pyrrolo[3,2-c]pyridin-4-one] gave an IC50 [1] of 0.443 nM, an IC50 (Ba/F3-EGFR-insSVD cells; [2]) of 121 nM and an IC50 (Ba/F3-EGFR-WT cells; [3]) of 1890 nM.

In the case of `COC(C)(C)COc1cnccc1-c1[nH]c2c(c1Nc1cccc(Cl)c1Br)C(=O)NCC2` [Example 78, 3-(2-bromo-3-chloroanilino)-2-[3-(2-methoxy-2-methylpropoxy)pyridin-4-yl]-1,5,6,7-tetrahydro-4H-pyrrolo[3,2-c]pyridin-4-one], the IC50 [1] is reported as < 0.0725 nM and 0.0736 nM, the IC50 (Ba/F3-EGFR-insSVD cells; [2]) is reported as 16 nM and the IC50 (Ba/F3-EGFR-WT cells; [3]) is reported as 583 nM.

For `COc1c(Cl)cccc1Nc1c(-c2ccncc2OCC(C)(C)O)[nH]c2c1C(=O)NCC2` [Example 59, 3-(3-chloro-2-methoxyanilino)-2-[3-(2-hydroxy-2-methylpropoxy)pyridin-4-yl]-1,5,6,7-tetrahydro-4H-pyrrolo[3,2-c]pyridin-4-one], the IC50 [1] was < 0.0725 nM, the IC50 (Ba/F3-EGFR-insSVD cells; [2]) was 17.7 nM and the IC50 (Ba/F3-EGFR-WT cells; [3]) was 542 nM.

For `COc1c(F)cccc1Nc1c(-c2ccncc2OCC2CCCO2)[nH]c2c1C(=O)NCC2` (single isomer, unassigned; enantiomer 1) [Example 88, 3-(3-fluoro-2-methoxyanilino)-2-{3-[(oxolan-2-yl)methoxy]pyridin-4-yl}-1,5,6,7-tetrahydro-4H-pyrrolo[3,2-c]pyridin-4-one (enantiomer 1)], the IC50 [1] was 0.0888 nM, the IC50 (Ba/F3-EGFR-insSVD cells; [4]) was 38 nM and the IC50 (Ba/F3-EGFR-WT cells; [3]) was 388 nM.

`Cc1c(F)cccc1Nc1c(-c2ccncc2OCC(C)(C)N(C)C)[nH]c2c1C(=O)NCC2` [Example 61, 2-{3-[2-(dimethylamino)-2-methylpropoxy]pyridin-4-yl}-3-(3-fluoro-2-methylanilino)-1,5,6,7-tetrahydro-4H-pyrrolo[3,2-c]pyridin-4-one] showed an IC50 [1] of 1.12 nM, an IC50 (Ba/F3-EGFR-insSVD cells; [2]) of 88.9 nM and an IC50 (Ba/F3-EGFR-WT cells; [3]) of 1460 nM.

`COC(C)(C)COc1cnccc1-c1[nH]c2c(c1Nc1cccc(Cl)c1OC(F)F)C(=O)NCC2` [Example 38, 3-[3-chloro-2-(difluoromethoxy)anilino]-2-[3-(2-methoxy-2-methylpropoxy)pyridin-4-yl]-1,5,6,7-tetrahydro-4H-pyrrolo[3,2-c]pyridin-4-one] was tested, and the IC50 [1] was 0.13 nM, the IC50 (Ba/F3-EGFR-insSVD cells; [2]) was 17.5 nM and the IC50 (Ba/F3-EGFR-WT cells; [3]) was 466 nM.

`COc1c(F)cccc1Nc1c(-c2ccncc2OCCN2CCOCC2)[nH]c2c1C(=O)NCC2` [Example 84, 3-(3-fluoro-2-methoxyanilino)-2-{3-[2-(morpholin-4-yl)ethoxy]pyridin-4-yl}-1,5,6,7-tetrahydro-4H-pyrrolo[3,2-c]pyridin-4-one] showed an IC50 [1] of 0.223 nM, an IC50 (Ba/F3-EGFR-insSVD cells; [5]) of 188 nM and an IC50 (Ba/F3-EGFR-WT cells; [6]) of 2210 nM.

`COc1c(Cl)cccc1Nc1c(-c2ccncc2OC[C@@H]2CCCN2)[nH]c2c1C(=O)NCC2` [Example 80, 3-(3-chloro-2-methoxyanilino)-2-(3-{[(2S)-pyrrolidin-2-yl]methoxy}pyridin-4-yl)-1,5,6,7-tetrahydro-4H-pyrrolo[3,2-c]pyridin-4-one] gave an IC50 [1] of 0.503 nM, an IC50 (Ba/F3-EGFR-insSVD cells; [2]) of 206 nM and an IC50 (Ba/F3-EGFR-WT cells; [3]) of 1460 nM.

In the case of `COC(C)(C)COc1cnccc1-c1[nH]c2c(c1Nc1cc(F)cc(F)c1C)C(=O)NCC2` [Example 40, 3-(3,5-difluoro-2-methylanilino)-2-[3-(2-methoxy-2-methylpropoxy)pyridin-4-yl]-1,5,6,7-tetrahydro-4H-pyrrolo[3,2-c]pyridin-4-one], the IC50 [1] is reported as 0.0994 nM, the IC50 (Ba/F3-EGFR-insSVD cells; [2]) is reported as 50.5 nM and the IC50 (Ba/F3-EGFR-WT cells; [3]) is reported as 1450 nM.

Work on `O=C1NCCc2[nH]c(-c3ccncc3OC[C@@H]3CCCO3)c(Nc3cccc(Cl)c3Cl)c21` [Example 70, 3-(2,3-dichloroanilino)-2-(3-{[(2S)-oxolan-2-yl]methoxy}pyridin-4-yl)-1,5,6,7-tetrahydro-4H-pyrrolo[3,2-c]pyridin-4-one] yielded an IC50 [1] of 0.0918 nM, an IC50 (Ba/F3-EGFR-insSVD cells; [2]) of 16.1 nM and an IC50 (Ba/F3-EGFR-WT cells; [3]) of 297 nM.

`Cc1c(Cl)cccc1Nc1c(-c2ccncc2OC[C@@H]2CCCN2C)[nH]c2c1C(=O)NCC2` [Example 77, 3-(3-chloro-2-methylanilino)-2-(3-{[(2S)-1-methylpyrrolidin-2-yl]methoxy}pyridin-4-yl)-1,5,6,7-tetrahydro-4H-pyrrolo[3,2-c]pyridin-4-one] showed an IC50 [1] of 0.727 nM, an IC50 (Ba/F3-EGFR-insSVD cells; [2]) of 46.3 nM and an IC50 (Ba/F3-EGFR-WT cells; [3]) of 1480 nM.

With `COCCOc1cnccc1-c1[nH]c2c(c1Nc1cccc(Cl)c1OC)C(=O)NCC2` [Example 32, 3-(3-chloro-2-methoxyanilino)-2-[3-(2-methoxyethoxy)pyridin-4-yl]-1,5,6,7-tetrahydro-4H-pyrrolo[3,2-c]pyridin-4-one] the IC50 [1] was 0.076 nM and < 0.0725 nM, the IC50 (Ba/F3-EGFR-insSVD cells; [2]) was 9.87 nM and the IC50 (Ba/F3-EGFR-WT cells; [3]) was 299 nM.

`O=C1NCCc2[nH]c(-c3ccncc3OCC3CCCCO3)c(Nc3cccc(Cl)c3Cl)c21` (stereo not drawn) [Example 69, 3-(2,3-dichloroanilino)-2-{3-[(oxan-2-yl)methoxy]pyridin-4-yl}-1,5,6,7-tetrahydro-4H-pyrrolo[3,2-c]pyridin-4-one] was tested, and the IC50 [1] was 0.106 nM, the IC50 (Ba/F3-EGFR-insSVD cells; [2]) was 12.4 nM and the IC50 (Ba/F3-EGFR-WT cells; [3]) was 290 nM.

`COc1c(F)cccc1Nc1c(-c2ccncc2OCC(C)(C)O)[nH]c2c1C(=O)NCC2` [Example 72, 3-(3-fluoro-2-methoxyanilino)-2-[3-(2-hydroxy-2-methylpropoxy)pyridin-4-yl]-1,5,6,7-tetrahydro-4H-pyrrolo[3,2-c]pyridin-4-one] was tested, and the IC50 [1] was 0.144 nM, the IC50 (Ba/F3-EGFR-insSVD cells; [2]) was 67.7 nM and the IC50 (Ba/F3-EGFR-WT cells; [3]) was 1010 nM.

With `COc1c(Nc2c(-c3ccncc3OCCN(C)CC(F)(F)F)[nH]c3c2C(=O)NCC3)ccc(F)c1Cl` [Example 96, 3-(3-chloro-4-fluoro-2-methoxyanilino)-2-(3-{2-[methyl(2,2,2-trifluoroethyl)amino]ethoxy}pyridin-4-yl)-1,5,6,7-tetrahydro-4H-pyrrolo[3,2-c]pyridin-4-one] the IC50 [1] was 0.305 nM, the IC50 (Ba/F3-EGFR-insSVD cells; [2]) was 49.6 nM and the IC50 (Ba/F3-EGFR-WT cells; [3]) was 1470 nM.

For `COC(C)(C)COc1cnccc1-c1[nH]c2c(c1Nc1cccc(Cl)c1Cl)C(=O)NCC2` [Example 34, 3-(2,3-dichloroanilino)-2-[3-(2-methoxy-2-methylpropoxy)pyridin-4-yl]-1,5,6,7-tetrahydro-4H-pyrrolo[3,2-c]pyridin-4-one], the IC50 [1] was 0.0946 nM, the IC50 (Ba/F3-EGFR-insSVD cells; [2]) was 7 nM and the IC50 (Ba/F3-EGFR-WT cells; [3]) was 278 nM.
